These results are taken from patent publication US20160039936A1, “FIBROBLAST GROWTH FACTOR RECEPTOR INHIBITION FOR THE TREATMENT OF DISEASE” (UNIVERSITY OF MIAMI, priority 2011, published 2016).

Test [1] concerns isolated NRVM. The test can be described thus: Cross-sectional area (hypertrophy) of isolated NRVM with receptor antagonists (Example 4). It counts as cell-based, rat. Conditions: NRVM 48 h, PD173074 10 nM, AZD4547 5 nM, anti-FGFR4 10 μg/ml. The protocol:
NRVM were isolated using a standard isolation system (Worthington Biochemical Corporation) (Faul et al., 2011). Hearts from 1-2 day old Sprague Dawley rats were harvested, minced in calcium-and magnesium-free Hank's Balanced Salt Solution (HBSS), and the tissue digested with 50 μg/ml trypsin at 4° C. for 20-24 hours. Soybean trypsin inhibitor in HBSS was added, and the tissue was further digested with collagenase (in Leibovitz L-15 medium) under slow rotation (15 rpm) at 37° C. for 45 minutes. Cells were released by triturating the suspension 20 times with a standard 10 ml plastic serological pipette and filtering it twice through a cell strainer (70 μm, BD Falcon). Cells were incubated at room temperature for 20 minutes and spun at 100 g for 5 minutes. The cell pellet was resuspended in plating medium [Dulbecco's Modified Eagle Medium (DMEM; Cellgro) with 17% Media 199 (Invitrogen), 15% fetal bovine serum (FBS; Invitrogen) and 1% penicillin/streptomycin solution (P/S; Invitrogen)]. Cells were counted using a hemocytometer.
Cells were plated on glass and plastic surfaces, which were coated with laminin (Invitrogen; 10 μg/ml in PBS) at room temperature for 1 hour prior to plating. For immunofluorescence analysis, 3×10^5 cells were seeded per well on glass coverslips in 24-well plates. For Western blot or qPCR analyses of total extracts, 1×10^6 cells were seeded per well in 6-well plates, and for immunoprecipitation assays, 5×10^6 cells were seeded in 10 cm-culture dishes. Cells were left undisturbed in plating medium at 37° C. for 72 hours and then cultured in maintenance medium (DMEM with 20% Media 199, 1% insulin-transferrin-sodium selenite solution [ITS; Sigma-Aldrich] and 1% P/S) in the presence of 100 μM 5-bromo-2′-deoxyuridine (BrdU; Sigam-Aldrich). After 4 days, isolated cardiac myocytes were cultured in BrdU-containing maintenance medium in the presence of recombinant murine FGF23 or FGF2 (both at 25 ng/ml) for different time points.
Cultured cells were fixed in 2% PFA (in 5 mg/ml sucrose) for 5 minutes and permeabilized in 1% Triton X-100 (in PBS) for 10 minutes. We analyzed hypertrophic growth of isolated NRVM and NMVM on laminin-coated glass coverslips after 48 hours of treatment with growth factors. For FGFR4 expression and localization analyses, untreated NMVM from wild-type and FGFR4^−/− mice were immunolabeled. The mouse monoclonal antibody against sarcomeric α-actinin (EA-53; Sigma-Aldrich) was used at 1:1,000, and rabbit polyclonal anti-FGFR4 (C-16; Santa Cruz) at 1:50. Cy3-conjugated goat-anti mouse and Alexa488-conjugated goat-anti rabbit (Jackson Immuno Research) were used as secondary antibodies at 1:300. To visualize nuclei, fixed cells were incubated with 4′,6-diamidino-2-phenylindole (DAPI; 400 ng/ml in PBS) for 10 minutes. Immunofluorescence images were taken on a Leica TCS-SP5 confocal microscope with a 63× oil objective.
Myocyte cross-sectional area was measured based on α-actinin-positive staining using Leica AF6000 fluorescence software. To assess the signaling pathways involved in FGF23- and FGF2-mediated hypertrophy, we analyzed the morphometry of plated cells that were pre-treated with specific inhibitors for 60 minutes prior to the addition of the FGFs at 25 ng/ml (NRVMs) or at 100 ng/ml (NMVMs). The following inhibitors and concentrations were used: pan-FGFR, PD173074 (Sigma-Aldrich) at 10 nM; FGFR1-3, AZD4547 (ChemieTek) at 5 nM; and FGFR4 blocking antibody (human monoclonal, U3-11; U3Pharma) at 10 μg/ml.

The subject of test [2] is FGFR. Conditions: Hagel M et al 2015; cited from earlier work.

As to AZD4547, the “FGF2-induced hypertrophy (cross-sectional area) with receptor antagonist” value in test [1] (FGF2 25 ng/ml) is “prevented”. Moreover, in test [1] (FGF23 25 ng/ml), the “FGF23-induced hypertrophy (cross-sectional area) with receptor antagonist” value is “but not FGF23-induced hypertrophy”.
On to `C=CC(=O)Nc1cccc(C)c1Nc1ncc2cc(-c3c(Cl)c(OC)cc(OC)c3Cl)ccc2n1` [BLU9931], for which the FGFR4 inhibition entry in test [2] was “very potent and selective”.
